Experimental data taken from patent US20130177528A1, “COMPOSITIONS AND METHODS FOR INHIBITING VIRAL INFECTION” (WESTERN UNIVERSITY OF HEALTH SCIENCES, priority 2011, published 2013).

B1: ADAM15: ADAM15 (Ad15) polypeptide tested against HSV-1; exact construct not stated (protein, UniProt Q13444 207-863, looked up)
Disintegrin and …: DVVTETKTVELVIVADHSEAQKYRDFQHLLNRTLEVALLLDTFFRPLNVRVALVGLEAWTQRDLVEISPNPAVTLENFLHWRRAHLLPRLPHDSAQLVTGTSFSGPTVGMAIQNSICSPDFSGGVNMDHSTSILGVASSIAHELGHSLGLDHDLPGNSCPCPGPAPAKTCIMEASTDFLPGLNFSNCSRRALEKALLDGMGSCLFERLPSLPPMAAFCGNMFVEPGEQCDCGFLDDCVDPCCDSLTCQLRPGAQCASDGPCCQNCQLRPSGWQCRPTRGDCDLPEFCPGDSSQCPPDVSLGDGEPCAGGQAVCMHGRCASYAQQCQSLWGPGAQPAAPLCLQTANTRGNAFGSCGRNPSGSYVSCTPRDAICGQLQCQTGRTQPLLGSIRDLLWETIDVNGTELNCSWVHLDLGSDVAQPLLTLPGTACGPGLVCIDHRCQRVDLLGAQECRSKCHGHGVCDSNRHCYCEEGWAPPDCTTQLKATSSLTTGLLLSLLVLLVLVMLGASYWYRARLHQRLCQLKGPTCQYRAAQSGPSERPGPPQRALLARGTKQASALSFPAPPSRPLPPDPVSKRLQAELADRPNPPTRPLPADPVVRSPKSQGPAKPPPPRKPLPADPQGRCPSGDLPGPGAGIPPLVVPSRPAPPPPTVSSLYL

Tests used:
HSV-1 (KOS) gL86 [1] = assay: HSV-1 infection of HeLa, Vero and 293T cells, virus pre-incubated (Example 3); assay type: cell-based, herpes simplex virus type-1; conditions: HeLa cells; virus 30 pfu/cell pre-incubated 90 min; 6 hr
Description: CN blocks herpes simplex virus type-1 (HSV-1) infection of natural target cells. HeLa, Vero and 293T cells were each grown to 100% confluency in 96-well plates. The β-galactosidase-expressing recombinant virus HSV-1 (KOS) HSV-1 gL86 (30 pfu/cell) was pre-incubated with CN at the concentration indicated in FIG. 7 or mock treated with 1 X phosphate saline buffer for 90 min at room temperature. After 6 hr, the cells were washed, permeabilized and incubated with ONPG substrate (3.0 mg/ml). The β-gal enzymatic activity was measured at an optical density of 410 nm (OD 410). Each value shown in FIG. 7 is the mean of three or more determinations (±SD). Mock treated HSV-1 with PBS was used as a control. HSV-1 infection of HeLa (panel A) and Vero and 293T cells (panel B) was blocked by CN.

[2] = system: HSV-2 (333 gJ-reporter virus); assay: HSV-2 infection of HeLa cells, ONPG assay (Example 4); assay type: cell-based; conditions: virus pre-incubated; starting concentration 1 mg/ml
Description: In this experiment different clinical strains of HSV-1 (F, G, and MP strains of HSV-1 [37] at 25 pfu/cell) were either pre-incubated with 1×PBS (control) or with CN at the concentrations indicated in FIG. 8, panel A for 90 min at room temperature. After 90 min of incubation the two pools of viruses were incubated with Nectin-1 receptor expressing CHO Igβ cells that express β-galactosidase upon viral entry as described. The viral infection blocking was measured by ONPG assay (FIG. 8, panel A). Similar experiment was conducted using Lac Z encoded HSV-2 (333 gJ-reporter virus). HSV-2 is a genital herpes virus. […] Each value shown is the mean of three or more determinations (±SD).

HSV-1 (KOS) gL86 [3] = assay: HSV-1 infection of HeLa cells at MOIs 5, 15 and 25 PFU/cell (Example 6); assay type: cell-based, herpes simplex virus type-1; conditions: virus pre-incubated 180 min, 6 hr
Description: HeLa cells were each grown to 100% confluency in 96-well plates. The β-galactosidase-expressing recombinant virus HSV-1 (KOS) HSV-1 gL86 […] was pre-incubated at MOIs of 5 (FIG. 10, panel A), 15 (FIG. 10, panel B) and 25 (FIG. 10, panel C) plaque-forming units per cell (PFU) with VCN (VN), CN or ADAM15 (Ad15) at the concentrations indicated or mock treated with 1 X phosphate saline buffer for 180 min at room temperature. After 6 hr, the cells were washed, permeabilized and incubated with ONPG substrate (3.0 mg/ml). The β-gal enzymatic activity was measured at an optical density of 410 nm (OD 410). Mock treated HSV-1 with PBS was used as a […] control ((+) infected with virus alone; (−) uninfected control).

[4] = system: β-galactosidase-expressing recombinant Adenovirus; assay: Adenovirus infection of HeLa cells (Example 7); assay type: cell-based; conditions: similar experiments as for CN
Description: HeLa cells were infected with a β-galactosidase-expressing recombinant Adenovirus were pre-incubated with CN at (1) the dilution indicated in FIG. 11, panel A (stock concentration 22 nM) or (2) the concentrations indicated in FIG. 11, panel B, or mock treated with 1 X phosphate saline buffer for 90 min at room temperature. After 12 hr, the cells were washed, permeabilized and incubated with ONPG substrate (3.0 mg/ml) for quantitation of β-galactosidase activity expressed from the input viral genome. Positive (Pos) infected with virus alone; Negative (Neg) uninfected control. The enzymatic activity was measured at an optical density of 410 nm (OD 410).

Molecule | HSV-1 infection (β-gal activity, OD 410) (HSV-1 (KOS) gL86 [1]) | HSV-2 infection of HeLa cells (dose response, ONPG assay) [2] | HSV-1 infection of HeLa cells, blocking and rank order (β-gal activity, OD 410) (HSV-1 (KOS) gL86 [3]) | IC50 [4] [µM]
vicrostatin [VCN] | blocked HSV-1 infection of HeLa cells | significantly inhibited HSV-2 infection | blocked by CN >VCN >ADAM15 | 21
B1 | – | – | blocked by CN >VCN >ADAM15 | –
